Test results as given in patent US8119689B2, “Adjuvants on the basis of bisacyloxypropylcystene conjugates and derivatives and their uses in pharmaceutical compositions” (Helmholtz-Zentrum Fuer Infektionsforschung GmbH, priority 2005, dated 2012).

Experiments:
[1] = test system: β-gal antigen-specific IgG isotypes; test: β-gal-specific IgG isotypes in sera of immunized mice (isotype ELISA); type: in vivo; settings: after intranasal and after parenteral administration
Experimental: FIG. 8: FIG. 8 provides the analysis of beta-Gal specific IgG isotypes in sera of immunized mice. Anti-beta-Gal specific IgG isotypes of the groups immunized with PBS, (control) beta-Gal+either BPPcysGlyc4armPEG or BPPcysPEG (FIG. 8A) or BPPcysAda or Ada alone (FIG. 8B), or beta-Gal alone of mice immunized by the i.n. or s.c. route were determined by ELISA. Results are expressed as end point titers. IgG titers represent the mean of five animals per experimental group. Differences were statistically significant at p<0.05 (*) with respect to mice receiving antigen alone. One representative out of four independent experiments is shown. SEM is indicated by vertical lines.
Isotyp ELISA: 96-well Nunc-Immuno MaxiSorp assay plates (Nunc, Roskilde, Denmark) were coated with 100 μl of β-gal (Boehringer, Mannheim, Germany) at 5 μg/ml in 0.05 M carbonate buffer (pH 8.2) per well. Serial two-fold dilutions of sera or lavages in PBS with 1% BSA and 0.05% Tween 20 were added (100 μl/well), and plates incubated for 2 h at 37° C. After washing, biotin-conjugated rat anti-mouse IgG1 or IgG2a (Pharmingen, Hamburg, Germany) were added to determine IgG subclasses. Plates were incubated for an additional 1 h at 37° C. After four washes, 100 μl of peroxidase-conjugated streptavidin (Pharmingen) was added to cells and plates incubated at 37° C. for 30 min. After four washes, reactions were developed with ABTS in 0.1 M citrate-phosphate buffer (pH 4.35) containing 0.01% H2O2. To determine the concentration of IgG subclasses in serum, standard curves were obtained by coating the wells with an isotype-specific goat anti-mouse IgG, and then by incubating with purified mouse IgG1 or IgG2a antibodies (Dianova, Hamburg, Germany).

[2] = test system: peritoneal macrophages from C3H/HeJ mice; test: Nitrogen monoxide release assay (macrophage activation); type: cell-based; settings: 25 mM octylglucoside in first dilution step
Experimental: NO release of restimulated macrophages using different concentrations (serial dilutions) of the macrophage activator BPPcysGlyc4armPEG as adjuvant. As positive control, the NO release of macrophages in response to serial dilutions of Malp-2 and in response to 4armPEG molecules (negative control) are shown.
In brief, peritoneal macrophages from C3H/HeJ mice were used as the macrophage source. They were cultured in 96-well microtiter plates and stimulated simultaneously with rIFN-γ and a serial dilution of macrophage activator. Insofar as necessary (i.e. R-Malp-2/standard), the macrophage activators were dissolved in 25 mM octylglucoside in the first dilution step and then diluted further with medium. After an incubating time of 45-48 hours, the nitrate was reduced with nitrate reductase and the starting substance nitrogen monoxide was determined, as the sum of nitrate and nitrite, using Griess' reagent. 1 unit (U)/ml is defined as the dilution at which half-maximal stimulation takes place.

[3] = test system: primary bone marrow-derived dendritic cells; test: In vitro stimulation of primary bone marrow-derived murine dendritic cells, surface markers by flow cytometry; type: cell-based, BALB/c mice; settings: concentration enhanced to 100 ng/ml (not shown)
Experimental: FIG. 1: FIGS. 1A-1C show the results for In vitro studies using primary dendritic cells. Primary bone marrow-derived dendritic cell cultures were obtained from BALB/c mice by in vitro maturation of precursors using recombinant GM-CSF (5×10^4 U/ml). Mature dendritic cells were stimulated with 10 ng/ml of E. coli lypopolysaccharide (LPS) or 50 and 100 ng/ml of BPPcysGlyc4armPEG and BPPcysAda, respectively. Then, cells were double-labeled with antibodies specific for CD11c (dendritic cell marker) in combination with anti-CD40, anti-CD54, anti-CD80, anti-CD86, anti-MHC class 1, or anti-MHC class 11 antibodies. The expression of CD40, CD80, CD54, CD86, anti-MHC class 1, and MHC class 11 in CD11c-gated cells were analyzed by flow cytometry.
Experimental protocol: primary bone marrow-derived dendritic cell cultures were obtained from BALB/c mice following in vitro maturation of precursors in the presence of recombinant GM-CSF (5×10^4 U/ml), according to established protocols. Mature dendritic cells were stimulated with 10 ng/ml of E. coli lypopolysaccharide (LPS) or 5 ng/ml of BPPcysGlyc4armPEG, after 12, 24 and/or 48 h stimulation cells were analyzed by flow cytometry to assess the expression of surface markers which are relevant for their antigen presentation capacity.
In order to identify compounds which may have potential as adjuvants for in vivo applications in the vaccinology field, a first in vitro screening based on the used of primary cultures of bone marrow-derived dendritic cells was established. Dendritic cells were selected since they represent the most efficient antigen presenting cells and they play a key role by primary immune responses. In fact, they are the only cell type able to activate resting T cells initiating primary immune responses in vivo. Thus, dendritic cell cultures were treated with the tested moieties or LPS, which was used as a positive control. At different time intervals, samples were taken, stained with fluorescent-labeled antibodies specific for cellular markers critical for the antigen presenting capacities of dendritic cells, and analyzed by flow cytometry.
To test the stimulatory capacity of BPPCysAda on maturation and activation of bone marrow-derived DC, immature DC's were stimulated in vitro with BPPCysAda. Surface markers on CD11c+-gated DC were investigated by FACS analysis after 16 or 40 h pre-treatment.

In the case of `Nc1ncnc2c1ncn2[C@@H]1O[C@@H]2COP(=O)(O)O[C@H]3[C@@H](O)[C@H](n4cnc5c(N)ncnc54)O[C@@H]3COP(=O)(O)O[C@H]2[C@H]1O` [c-diAMP], the antigen-specific antibody response [1] is reported as “strong antigen-specific antibody response”.

With MALP-2 [reference compound] the “effect of adding a solubilizer (octylglucoside) on macrophage activation” value [2] was “required” and the “differences in the expression of surface markers when concentration enhanced” value [3] was “No differences”.
